Test results as given in patent US7709223B2, “Method for detecting bacteria with chromogenic substrates for β-D-ribofuranosidase” (priority 2001, dated 2010).
Structures can show the parent of a compound that is named as a salt.

Experiments:
[1] = system: E. coli; experiment: Aluminium salt-containing medium with mixed culture; format: cell-based; settings: mixed culture of E. coli and Yersinia enterocolitica
Experimental: (§1) The substrate was evaluated using the general method of example 2 but using a range of different metal salts and a culture of E. coli alone. The metal salts shown in Table 5, below, were used at a concentration of 500 mg/l.
(§2) When the aluminium salt-containing medium was used with a mixed culture of E. coli and Yersinia enterocolitica, the E. coli colonies were bright yellow and stood out very clearly.

[2] = system: Yersinia enterocolitica; experiment: as above; format: cell-based; settings: mixed culture of E. coli and Yersinia enterocolitica
Experimental: as §1, §2

[3] = system: β-D-ribofuranosidase negative strains; experiment: Further substrates on agar plates, colony appearance; format: cell-based
Experimental: (§3) The chromogenic β-D-ribofuranoside substrate was added to Columbia agar at a substrate concentration of 300 mg/l. Ferric ammonium citrate was included at 500 mg/l. All ingredients were autoclaved at 116° C. for 20 minutes to ensure sterilisation. Agar plates were then prepared in 90 mm petri dishes. The substrate caused a yellow colouration of the agar.
(§4) For each strain tested, a bacterial suspension was prepared in sterile deionised water at an inoculum of approximately 1.5×10^8 colony forming units per ml. This was achieved using a densitometer. 1 μl of each bacterial suspension was then inoculated onto each plate using a multipoint inoculator. Strains were inoculated in parallel onto Columbia agar containing ferric ammonium citrate with no substrate (negative control).
(§5) After 18 hours incubation, strains were examined visually for the presence of colour. Any strains producing a black colouration on substrate containing media but not on the negative control plates were deemed to be hydrolysing the substrate.
(§6) The same evaluation method as described above in Example 2 was utilised.

[4] = system: β-D-ribofuranosidase positive strains; experiment: as above; format: cell-based
Experimental: as §3, §4, §5, §6

[5] = system: E. aerogenes; experiment: Hydrolysis on Columbia agar with ferric ammonium citrate; format: cell-based; settings: E. aerogenes; weaker reaction
Experimental: as §3, §4, §5

[6] = system: E. coli; experiment: as above; format: cell-based; settings: E. coli; weaker reaction
Experimental: as §3, §4, §5

[7] = system: K. pneumoniae; experiment: as above; format: cell-based; settings: K. pneumoniae
Experimental: as §3, §4, §5

[8] = system: Shigella sonnei; experiment: as above; format: cell-based; settings: S. sonnei
Experimental: as §3, §4, §5

[9] = system: E. coli; experiment: Evaluation with metal salts forming chelates, colour of colonies; format: cell-based
Experimental: as §3, §4, §5, §1

[10] = target: AMP nucleosidase (Escherichia coli, UniProt P0AE12); settings: N-ribohydrolase from E. coli, AMP nucleosidase (Schramm et al, WO97/31008); cited from earlier work
Chain of AMP nucleosidase (P0AE12 whole entry): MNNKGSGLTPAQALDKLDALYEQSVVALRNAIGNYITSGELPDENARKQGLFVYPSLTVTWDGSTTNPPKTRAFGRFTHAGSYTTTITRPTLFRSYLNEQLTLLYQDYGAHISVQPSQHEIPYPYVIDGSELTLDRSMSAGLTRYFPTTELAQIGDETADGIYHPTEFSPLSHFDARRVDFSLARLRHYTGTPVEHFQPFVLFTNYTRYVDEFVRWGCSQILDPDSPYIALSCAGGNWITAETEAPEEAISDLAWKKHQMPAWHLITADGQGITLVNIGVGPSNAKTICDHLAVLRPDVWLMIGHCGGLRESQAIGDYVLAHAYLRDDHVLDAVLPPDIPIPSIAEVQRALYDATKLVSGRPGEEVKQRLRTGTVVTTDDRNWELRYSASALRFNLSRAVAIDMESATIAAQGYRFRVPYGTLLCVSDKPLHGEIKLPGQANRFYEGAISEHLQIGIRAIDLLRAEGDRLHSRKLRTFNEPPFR

COc1c(-c2ccc(O[C@@H]3O[C@H](CO)[C@@H](O)[C@H]3O)c(O)c2)oc2ccccc2c1=O
Colour of E. coli colonies [1]: bright yellow | Colour of Y. enterocolitica colonies [2]: colourless

3,4-Dihydroxybenzaldehydesemicarbazone-4-β-D-ribofuranoside [Example 1.5]
Colony appearance [3]: cream colonies | Colony appearance [4]: diffuse brown colonies

O=Cc1ccc(OC2OC(CO)C(O)C2O)c(O)c1 [Example 1.4, 3,4-Dihydroxybenzaldehyde-4β-D-ribofuranoside sodium salt]
Colony appearance [5]: paler colonies | Colony appearance [6]: paler colonies | Colony appearance [7]: Dark brown colonies | Colony appearance [8]: Dark brown colonies | Colony appearance [3]: cream colonies

O=C1/C(=C/c2ccc(OC3OC(CO)C(O)C3O)c(O)c2)Oc2ccccc21 [Example 1.7, 3′,4′-Dihydroxyaurone-4′-β-D-ribofuranoside]
Colony appearance [4]: pale brown colonies

COc1c(-c2ccc(O[C@@H]3O[C@H](CO)[C@@H](O)[C@H]3O)c(O)c2)oc2ccccc2c1=O [Example 6, 3′4′-dihydroxy-3-methoxy-flavone-4′-β-D-ribofuranoside]
Colour of colonies ([9]; No metal): Diffuse yellow | Colour of colonies ([9]; metal salt Al 500 mg/l): Yellow | Colour of colonies ([9]; metal salt Ba 500 mg/l): Yellow | Colour of colonies ([9]; metal salt Bi 500 mg/l): Rusty orange | Colour of colonies ([9]; metal salt Co 500 mg/l): No growth | Colour of colonies ([9]; metal salt Fe 500 mg/l): Brown | Colour of colonies ([9]; metal salt Mn 500 mg/l): Pale orange | Colour of colonies ([9]; metal salt Sn 500 mg/l): Yellow | Colour of colonies ([9]; metal salt Sr 500 mg/l): Yellow | Colour of colonies ([9]; metal salt Zn 500 mg/l): No growth

O=[N+]([O-])c1ccc(O[C@@H]2O[C@H](COP(=O)(O)O)[C@@H](O)[C@H]2O)cc1 [p-Nitrophenyl β-D-ribofuranoside-5-phosphate]
Activity as substrate [10]: inactive
